According to patent US20190369122A1, “METABOLIC DISORDERS” (priority 2016, published 2019):

Experiments:
[1] = test system: p38γ/p38δ; settings: cited from earlier work
[2] = test system: p38α/p38β; settings: cited from earlier work
[3] = test system: HEK293 cells; assay: Signaling in HEK293 cells (immunoblot); format: cell-based, human; settings: for inhibition of imidazole propionate-induced phosphorylation of p62 and S6K1: 10 μM, 30 min pretreatment, ImP 100 μM 1 h
Description: (§1) Snap-frozen liver and harvested cells were lysed in buffer containing 50 mM Tris-HCl (pH 7.4), 150 mM NaCl, 1 mM EDTA, 1 mM Na3VO4, 20 mM NaF, 10 mM glycerophosphate, 1 mM PMSF, 10% glycerol, 1% Triton X-100 and protease inhibitor cocktail. For immunoprecipitation, the cell lysates were obtained in 0.3% CHAPS-containing lysis buffer, sonicated and centrifuged at 20,000 g for 15 min at 4° C., and the supernatant was incubated with 20 μl of anti-FLAG beads (Sigma) at 4° C. for 4 h under gentle agitation.
HEK293 cells (ATCC CRL-1573) were grown and maintained in high-glucose (4.5 g/l glucose) DMEM with 10% (v/v) FBS. […] 24 h after transfection (with plasmids or siRNA as indicated), HEK293 cells cultured in poly-L-lysine-coated 60 mm dishes were rinsed twice with DMEM without FBS and incubated in serum-free DMEM for 18 h. HEK293 cells were then washed once with EBSS and incubated in EBSS for 1 h.

[4] = test system: primary hepatocytes; assay: Insulin signaling in primary hepatocytes (immunoblot); format: cell-based, mouse; settings: rapamycin 20 nM, Torin 1 50 nM, ImP 100 μM
Description: as §1
Primary hepatocytes were isolated from C57BL/6J mice by digesting liver with perfusion of collagenase type IV as described previously. After perfusion, 16×10^5 cells were plated on collagen-coated 60 mm dishes in Dulbecco's modified Eagle's medium (DMEM)/F12 supplemented with fetal bovine serum (FBS), penicillin/streptomycin and 100 nM dexamethasone. After 4 h, the medium was changed to DMEM/F12 containing penicillin/streptomycin.

[5] = target: recombinant p62 (Abcam, ab95320), Q13501

Cc1ccc(-n2nc(C(C)(C)C)cc2NC(=O)Nc2ccc(OCCN3CCOCC3)c3ccccc23)cc1 [BIRB796, 1-(5-tert-butyl-2-p-tolyl-2H-pyrazol-3-yl)-3-[4-(2-morpholin-4-yl-ethoxy)naphthalen-1-yl]urea]
inhibition of p38γ/p38δ [1]: inhibits the entire p38 subfamily
inhibition of p38α/p38β [2]: inhibits the entire p38 subfamily
inhibition of imidazole propionate-induced phosphorylation of p62 and S6K1 ([3]; amino acid-deprived HEK293): inhibited

CC(C)C[C@H](N)C(=O)O [Leucine, reference compound]
S6K1 phosphorylation ([3]; HEK293, after only 15 min, transient): increased
time to mTORC1 activation ([3]; absence of amino acids): ≤ 15 min

NC1(c2ccc(-c3nc4ccn5c(=O)[nH]nc5c4cc3-c3ccccc3)cc2)CCC1 [MK2206, reference compound]
effect on imidazole propionate-induced Akt activation [3]: efficiently blocked
effect on imidazole propionate-induced S6K1 phosphorylation ([3]; absence of amino acids): did not affect
effect on imidazole propionate-induced S6K1 phosphorylation ([3]; presence of amino acids): inhibition

Oc1ccc(-c2nc(-c3ccncc3)c(-c3ccc(F)cc3)[nH]2)cc1 [SB202190]
inhibition of p38α/p38β [2]: inhibited
inhibition of imidazole propionate-induced phosphorylation of p62 and S6K1 ([3]; amino acid-deprived HEK293): not

N[C@@H](Cc1c[nH]cn1)C(=O)O [histidine, reference compound]
phosphorylation of p62 or S6K1 ([3]; amino acid-deprived HEK293, 100 μM for 1 h): neither

CCC(=O)N1CCN(c2ccc(-n3c(=O)ccc4cnc5ccc(-c6cnc7ccccc7c6)cc5c43)cc2C(F)(F)F)CC1 [torin 1, 1-[4-[4-(1-oxopropyl)-1-piperazinyl]-3-(trifluoromethyl)phenyl]-9-(3-quinolinyl)-benzo[h]-1,6-naphthyridin-2(1H)-one, reference compound]
effect on imidazole propionate-induced S6K1 phosphorylation [4]: reversed
inhibition of imidazole propionate-induced reduction of IRS [4]: inhibited

insulin: insulin from Sigma-Aldrich, used at 5 nM
mTORC1 activation, as measured by S6K1 phosphorylation ([3]; HEK293, insulin 5 nM, absence of amino acids or imidazole propionate): did not lead to mTORC1 activation

B1: recombinant p38γ (Abcam, ab125651) (protein)
chain: MSSPPPARSGFYRQEVTKTAWEVRAVYRDLQPVGSGAYGAVCSAVDGRTGAKVAIKKLYRPFQSELFAKRAYRELRLLKHMRHENVIGLLDVFTPDETLDDFTDFYLVMPFMGTDLGKLMKHEKLGEDRIQFLVYQMLKGLRYIHAAGIIHRDLKPGNLAVNEDCELKILDFGLARQADSEMTGYVVTRWYRAPEVILNWMRYTQTVDIWSVGCIMAEMITGKTLFKGSDHLDQLKEIMKVTGTPPAEFVQRLQSDEAKNYMKGLPELEKKDFASILTNASPLAVNLLEKMLVLDAEQRVTAGEALAHPYFESLHDTEDEPQVQKYDDSFDDVDRTLDEWKRVTYKEVLSFKPPRQLGARVSKETPL
p62 phosphorylation (T269 and S272), in vitro kinase assay [5]: p62 phosphorylation, at T269 and S272, was induced by p38γ in the presence of 50 µM ATP, which was further increased with 200 µM ATP
